Source: BindingDB's records for patent US11739090 (Jumbo Drug Bank, 2023)

Assays:
[1] = molecular target: Tyrosine-protein kinase BTK (Homo sapiens, UniProt Q06187); assay: BTK Kinase Assay
Experimental: (§1) 1. Reaction conditions: buffer conditions: 20 mM HEPES (pH 7.5), 10 mM MgCl2, 1 mM EGTA, 0.02% Brij35, 0.02 mg/mL BSA, 0.1 mm Na3VO4, 2 mm DTT, 1% DMSO.2. Reaction procedure:2.1. Preparing an indicator substrate in a freshly prepared reaction buffer 2.2. Delivering the desired cofactor to the above substrate solution 2.3. Delivering the indicated kinase to the substrate solution and gently mixing same 2.4. Delivering the compounds in DMSO to the kinase reaction mixture using acoustic technology (Echo550) 2.5. Initiating the reaction (final concentration of ATP: 5 μM) by delivering 33P-ATP (final specific activity: 0.01 μci/μL) to the reaction mixture 2.6. Incubating the kinase reaction at room temperature for 120 minutes 2.7. Recording the reaction on P81 ion exchange paper (Whatman #3698-915) 2.8. Washing the filter widely with 0.75% phosphoric acid 2.9. Measuring the radioactive phosphorylated substrate remaining on the filter paper. 3.Data analysis: the kinase activity data is expressed as the percentage of the remaining kinase activity in a test sample compared to a reaction with a carrier (dimethyl sulfoxide), and IC50 values and curve fitting are obtained using Prism4 software (GraphPad).

[2] = molecular target: Epidermal growth factor receptor (Homo sapiens, UniProt P00533); assay: EGFR, ITK and TEC Kinase Assay
Chain of Epidermal growth factor receptor (P00533 whole entry): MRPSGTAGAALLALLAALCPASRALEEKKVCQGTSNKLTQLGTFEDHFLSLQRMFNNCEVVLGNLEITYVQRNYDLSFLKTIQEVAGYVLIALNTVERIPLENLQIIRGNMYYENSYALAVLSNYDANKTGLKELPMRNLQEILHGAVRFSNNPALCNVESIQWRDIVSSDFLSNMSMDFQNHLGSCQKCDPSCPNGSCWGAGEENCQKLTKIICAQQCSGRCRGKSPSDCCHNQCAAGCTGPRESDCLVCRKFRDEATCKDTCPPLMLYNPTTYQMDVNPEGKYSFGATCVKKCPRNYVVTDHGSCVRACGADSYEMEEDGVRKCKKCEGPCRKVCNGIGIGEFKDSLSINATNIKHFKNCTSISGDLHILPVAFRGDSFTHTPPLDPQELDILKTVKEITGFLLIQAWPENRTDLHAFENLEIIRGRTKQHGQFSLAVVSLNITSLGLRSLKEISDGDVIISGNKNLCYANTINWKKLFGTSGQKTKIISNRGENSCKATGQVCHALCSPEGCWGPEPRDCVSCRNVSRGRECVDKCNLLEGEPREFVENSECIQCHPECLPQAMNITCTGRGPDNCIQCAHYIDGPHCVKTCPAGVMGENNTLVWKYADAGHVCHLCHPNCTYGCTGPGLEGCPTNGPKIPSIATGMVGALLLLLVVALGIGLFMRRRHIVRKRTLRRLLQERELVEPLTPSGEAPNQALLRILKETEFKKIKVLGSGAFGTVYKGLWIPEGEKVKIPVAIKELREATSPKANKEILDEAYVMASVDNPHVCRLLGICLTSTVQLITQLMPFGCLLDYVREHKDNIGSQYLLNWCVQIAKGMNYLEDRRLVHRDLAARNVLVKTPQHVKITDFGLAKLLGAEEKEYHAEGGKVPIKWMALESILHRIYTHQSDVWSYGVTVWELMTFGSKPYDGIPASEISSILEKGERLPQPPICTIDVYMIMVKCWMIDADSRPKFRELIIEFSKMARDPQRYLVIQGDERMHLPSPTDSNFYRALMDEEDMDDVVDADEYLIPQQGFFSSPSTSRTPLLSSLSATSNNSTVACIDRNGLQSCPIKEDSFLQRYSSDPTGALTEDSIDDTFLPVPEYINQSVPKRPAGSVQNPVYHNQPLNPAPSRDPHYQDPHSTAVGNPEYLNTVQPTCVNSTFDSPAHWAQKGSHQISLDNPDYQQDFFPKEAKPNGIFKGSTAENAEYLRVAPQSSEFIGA
Experimental: as §1, with “DMSO. 2.” for “DMSO.2.”, “ATP: 2 μM,” for “ATP:”, “μM and 5 μM respectively)” for “μM)”, “3. Data” for “3.Data”

[3] = molecular target: T1, Tyrosine-protein kinase ITK/TSK (Homo sapiens, UniProt Q08881)
T1 sequence (Q08881 whole entry): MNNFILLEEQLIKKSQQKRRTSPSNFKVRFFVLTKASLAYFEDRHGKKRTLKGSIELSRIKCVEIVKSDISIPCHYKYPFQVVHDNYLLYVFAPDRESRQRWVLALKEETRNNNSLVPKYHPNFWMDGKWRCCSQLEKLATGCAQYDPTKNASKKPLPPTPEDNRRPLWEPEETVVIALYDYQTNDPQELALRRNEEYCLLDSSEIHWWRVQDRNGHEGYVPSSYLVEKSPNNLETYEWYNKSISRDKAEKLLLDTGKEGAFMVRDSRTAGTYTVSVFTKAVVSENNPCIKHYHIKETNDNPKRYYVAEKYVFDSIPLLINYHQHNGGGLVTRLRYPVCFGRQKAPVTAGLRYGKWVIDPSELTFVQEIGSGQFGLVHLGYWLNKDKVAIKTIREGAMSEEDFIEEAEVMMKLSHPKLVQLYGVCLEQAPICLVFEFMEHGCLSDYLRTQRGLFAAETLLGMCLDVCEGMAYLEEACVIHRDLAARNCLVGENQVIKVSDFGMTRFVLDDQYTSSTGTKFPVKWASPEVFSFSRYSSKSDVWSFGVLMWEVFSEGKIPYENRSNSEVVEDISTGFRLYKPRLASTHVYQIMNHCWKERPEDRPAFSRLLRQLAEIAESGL

[4] = molecular target: T2, Tyrosine-protein kinase Tec (Homo sapiens, UniProt P42680)
T2 sequence (P42680 whole entry): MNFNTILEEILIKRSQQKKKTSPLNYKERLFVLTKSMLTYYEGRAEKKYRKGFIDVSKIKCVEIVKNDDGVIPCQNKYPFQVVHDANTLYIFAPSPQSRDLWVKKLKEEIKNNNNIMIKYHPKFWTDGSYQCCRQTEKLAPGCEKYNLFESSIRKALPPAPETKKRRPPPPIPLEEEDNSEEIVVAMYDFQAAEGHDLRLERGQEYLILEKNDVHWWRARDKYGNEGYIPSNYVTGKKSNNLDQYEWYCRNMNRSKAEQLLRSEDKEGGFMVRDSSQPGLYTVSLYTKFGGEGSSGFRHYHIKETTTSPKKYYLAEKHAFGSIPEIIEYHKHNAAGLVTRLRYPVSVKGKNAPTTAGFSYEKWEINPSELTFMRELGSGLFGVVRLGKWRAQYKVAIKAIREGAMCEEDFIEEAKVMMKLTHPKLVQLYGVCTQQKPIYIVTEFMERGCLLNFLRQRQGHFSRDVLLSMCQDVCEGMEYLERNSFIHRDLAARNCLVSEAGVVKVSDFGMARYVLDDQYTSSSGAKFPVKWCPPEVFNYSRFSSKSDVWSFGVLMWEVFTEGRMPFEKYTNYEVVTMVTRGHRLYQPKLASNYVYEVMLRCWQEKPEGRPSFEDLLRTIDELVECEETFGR

Chain of Tyrosine-protein kinase BTK (Q06187 whole entry): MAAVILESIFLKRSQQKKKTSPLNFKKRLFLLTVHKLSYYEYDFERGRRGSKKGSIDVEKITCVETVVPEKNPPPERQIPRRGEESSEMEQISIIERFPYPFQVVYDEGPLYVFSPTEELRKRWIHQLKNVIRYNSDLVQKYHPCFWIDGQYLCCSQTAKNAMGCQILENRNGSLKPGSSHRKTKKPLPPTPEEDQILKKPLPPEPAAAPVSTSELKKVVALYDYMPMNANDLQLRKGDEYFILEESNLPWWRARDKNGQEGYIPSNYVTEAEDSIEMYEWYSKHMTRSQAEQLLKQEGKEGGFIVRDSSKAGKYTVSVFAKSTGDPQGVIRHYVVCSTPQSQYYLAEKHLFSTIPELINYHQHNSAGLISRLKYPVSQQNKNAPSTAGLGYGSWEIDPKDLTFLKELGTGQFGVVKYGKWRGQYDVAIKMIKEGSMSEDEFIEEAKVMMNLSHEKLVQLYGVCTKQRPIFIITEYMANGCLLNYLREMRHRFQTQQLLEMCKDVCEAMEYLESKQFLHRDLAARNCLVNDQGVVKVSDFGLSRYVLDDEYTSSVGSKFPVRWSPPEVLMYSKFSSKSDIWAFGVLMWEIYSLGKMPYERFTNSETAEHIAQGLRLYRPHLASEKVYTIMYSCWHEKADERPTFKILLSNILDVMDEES

Row | IC50 [1] [nM] | IC50 [2] [nM] | IC50 [3] [nM] | IC50 [4] [nM] | Structure (SMILES)
1 | 0.73 | 14.5 | 42.2 | 3.39 | C=CC(=O)N1CCC[C@@H](c2nn(-c3ccc(Oc4ccccc4)cc3)c3c(N)nccc23)C1 [US11739090, Compound 7A]
2 | 0.93 | 33.3 | 1450 | 3.74 | C=CC(=O)N1CCC[C@H](c2nn(-c3ccc(Oc4ccccc4)cc3)c3c(N)nccc23)C1 [US11739090, Compound 7B]
